Results taken from patent publication US20260199484A1, “PROTAC DEGRADERS OF MLLT1 AND/OR MLLT3” (DARK BLUE THERAPEUTICS LTD, priority 2024, published 2026).
pIC50: −log10 of the molar value.

Key:
human AML = assay: in vivo mouse model of human AML (procedure of Example 112); conditions: oral administration, FIG. 1
MLLT1 = target: T1, MLLT1 (Mus musculus, UniProt F6UGX7); assay: MLLT1 degradation assay in NIH/3T3 cells (JESS, 5 h); format: cell-based
T1 construct: endogenous in cells; host or cells: NIH/3T3 (ATCC CRL-1658)
T1 sequence (F6UGX7 1-547): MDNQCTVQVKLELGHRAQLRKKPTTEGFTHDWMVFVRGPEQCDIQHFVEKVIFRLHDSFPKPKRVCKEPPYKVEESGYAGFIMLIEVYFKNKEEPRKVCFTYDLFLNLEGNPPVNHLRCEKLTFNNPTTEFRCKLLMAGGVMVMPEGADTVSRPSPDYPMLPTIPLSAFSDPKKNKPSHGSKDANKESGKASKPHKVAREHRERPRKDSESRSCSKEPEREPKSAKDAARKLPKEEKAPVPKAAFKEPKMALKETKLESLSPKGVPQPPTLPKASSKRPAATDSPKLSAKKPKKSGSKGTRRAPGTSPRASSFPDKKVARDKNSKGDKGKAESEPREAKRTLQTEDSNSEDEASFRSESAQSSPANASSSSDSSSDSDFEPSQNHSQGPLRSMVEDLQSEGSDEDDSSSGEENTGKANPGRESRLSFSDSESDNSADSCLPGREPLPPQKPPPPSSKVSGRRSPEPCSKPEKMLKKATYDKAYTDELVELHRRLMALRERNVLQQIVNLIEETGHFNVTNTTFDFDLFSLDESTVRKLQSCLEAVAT
Protocol: MLLT1 degradation efficacy of compounds was tested in an automated chemiluminescent detection system (JESS, Cat #004-650). NIH/3T3 (#CRL-1658, ATCC) were seeded at a density of 0.5 million cells/well in a cell culture treated 6-well cell culture plate in 2 mL of complete medium (DMEM+10% FBS+1× Penicillin-Streptomycin) and incubated at 37° C., 5% CO2. The next day, 10 mM DMSO stocks were prepared, and cells were treated with eight concentrations of test compound, starting from 100 nM, 5-fold dilution, at a final DMSO concentration of 0.1% and incubated for 5 h at 37° C., 5% CO2. Post incubation, cells were washed with HBSS and lysed in 70 μL of RIPA buffer supplemented with Protease inhibitors (sc-24948; Santa Cruz). Protein estimation was done using BCA protein assay kit (23228; Pierce). […] Post run, data was analysed using “Compass for SW” software for chemiluminescent detection. […]
MLLT3 degradation efficacy of compounds was tested in an automated chemiluminescent detection system (JESS, Cat #004-650). […] Post run, data was analysed using “Compass for SW” software for chemiluminescent detection. […]

MV4-11 cells = assay: MV4-11 cellular proliferative assay, Assay Format A (CellTiter-Glo, 120 h); format: cell-based; conditions: Homo sapiens, Assay format A, 120 h, read-out: IC50 (MV4-11 cellular proliferative assay)
Procedure, shortened: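 MV4-11 cells seeded at 50 cells/well and exposed for 120 h to compound (10 semi-log dilutions, top 30 μM) or DMSO. Viability by CellTiter-Glo luminescence, normalised to DMSO and reference-compound wells; AC50 from Hill fit.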

Cc1nn(CCCCCCCC#Cc2cccc3c2CN(C2CCC(=O)NC2=O)C3=O)c2cc(C(=O)Nc3cc4[nH]c([C@H]5CCCN5C)cc4cn3)ccc12 (mixture of isomers) [Example 1, 1-(9-(2-(2,6-dioxopiperidin-3-yl)-1-oxoisoindolin-4-yl)non-8-yn-1-yl)-3-methyl-N-(2-((R)-1-methylpyrrolidin-2-yl)-1H-pyrrolo[3,2-c]pyridin-6-yl)-1H-indazole-6-carboxamide]
tumour growth (human AML): reduction in tumour growth | Dmax (MLLT1; NIH3T3, read-out: MLLT1 Dmax in NIH/3T3 cells): 90% | DC50 (MLLT1; NIH/3T3 cells, 5 h): 1.4 nM | pIC50 (MV4-11 cells): > 7.00
